Experimental data: patent US20240115745A1, “COMPOUNDS COMPRISING A FIBROBLAST ACTIVATION PROTEIN LIGAND AND USE THEREOF” (3B PHARMACEUTICALS GMBH, priority 2021, published 2024)
Like-named read-outs stand apart in the source and are kept apart here. *1 amine or outer side, *2 acyl side, *3 side chain or, on linkers, in order; H or OH if unused. Where a SMILES comes first, the peptide text is derived from it. Bridges are numbered along the chain shown (N, C = ends). [ ]: non-standard residue; d: D form. The star is where a group is joined. ξ: configuration not given here. X4 = O=C(O)CN1CCN(CC(=O)O)CCN(CC(=O)NCCCOCCOCCOCCCN*)CCN(CC(=O)O)CC1; X1 = NC(=O)CC[C@H](N[*:1])C(=O)C[C@@H](Cc1ccccc1)C(=O)[*:2]; X11 = O=C(O)CN1CCN(CC(=O)O)CCN([C@H](CCC(=O)*)C(=O)O)CC1; DOTA = O=C(O)CN1CCN(CC(=O)O)CCN(CC(=O)*)CCN(CC(=O)O)CC1; Maleimide(3,4-diyl) = O=C1NC(=O)C([*:2])=C1[*:1]; X9 = O=C(C1CCC[C@H]1C(=O)[*:2])[C@@H]1CCCN1[*:1]; X8 = NCCNCC(CNCCN)C(=O)NCCCOCCOCCOCCCN*; X7 = CN1C(=O)C([*:1])=C([*:2])C1=O; ξThr(3R) = C[C@@H](O)C(N)C(=O)O; Suc = O=C(CCC(=O)[*:2])[*:1]; 4Amb = NCc1ccc(C(=O)O)cc1; hCys = N[C@@H](CCS)C(=O)O; Nle = CCCC[C@H](N)C(=O)O; X3 = NCCNCC(CNCCN)C(=O)*; Hexanoyl = CCCCCC(=O)*; AEEA = NCCOCCOCC(=O)O; CO = O=C([*:1])[*:2]; ξP = O=C(O)C1CCCN1; βAla = NCCC(=O)O; NHBu = CCCCN*

How the values were obtained:
[1] = target: T1, FAP-expressing human WI-38 fibroblasts (Homo sapiens, UniProt Q12884); test: Competitive FACS binding assay;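 also: flow cytometry read-out of median Cy5 fluorescence on the cells, plotted versus test compound concentration, with IC50 derived by four-parameter logistic curve fitting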
T1 construct: FAP-expressing human WI-38 fibroblasts (ECACC) were cultured in EMEM; host or cells: WI-38 human fibroblasts

Recombinant human FAP = target: T2, Recombinant human FAP (Homo sapiens, UniProt Q12884); test: FRET-based FAP protease activity assay; assay type: biochemical
T2 construct: purchased R&D systems 3715-SE

[2] = competition with 3 nM Cy5-labeled compound, WI-38 fibroblasts, 4° C., 1 hour, read-out: pIC50 Category (FACS) (converted)
[3] = recombinant human FAP, FRET-peptide substrate, 37° C., read-out: pIC50 Category (Activity) (converted)
[4] = read-out: pIC50 (highest activity categories, FACS binding) (converted)
[5] = read-out: pIC50 (highest activity categories, FAP activity) (converted)

T1 sequence (Q12884 whole entry): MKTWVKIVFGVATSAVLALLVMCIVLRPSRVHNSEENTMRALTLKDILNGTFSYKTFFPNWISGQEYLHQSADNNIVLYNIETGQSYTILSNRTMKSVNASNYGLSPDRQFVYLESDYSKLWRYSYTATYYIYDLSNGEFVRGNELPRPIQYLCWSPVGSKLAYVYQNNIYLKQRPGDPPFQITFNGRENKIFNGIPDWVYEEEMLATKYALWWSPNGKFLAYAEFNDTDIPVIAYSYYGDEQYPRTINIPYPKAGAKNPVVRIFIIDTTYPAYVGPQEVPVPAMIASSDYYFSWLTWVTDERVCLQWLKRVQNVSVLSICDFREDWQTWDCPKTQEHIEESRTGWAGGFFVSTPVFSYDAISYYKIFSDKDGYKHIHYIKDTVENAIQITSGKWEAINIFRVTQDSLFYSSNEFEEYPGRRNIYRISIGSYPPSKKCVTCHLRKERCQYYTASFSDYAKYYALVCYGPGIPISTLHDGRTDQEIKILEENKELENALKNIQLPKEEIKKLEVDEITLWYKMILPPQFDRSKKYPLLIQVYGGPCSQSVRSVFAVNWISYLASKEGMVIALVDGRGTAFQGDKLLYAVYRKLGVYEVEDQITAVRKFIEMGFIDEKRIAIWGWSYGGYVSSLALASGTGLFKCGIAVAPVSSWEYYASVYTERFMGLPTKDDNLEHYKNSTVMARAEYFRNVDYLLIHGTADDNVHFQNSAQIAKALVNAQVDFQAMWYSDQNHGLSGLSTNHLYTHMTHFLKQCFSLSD
T2 sequence (Q12884 26-760 limits assumed): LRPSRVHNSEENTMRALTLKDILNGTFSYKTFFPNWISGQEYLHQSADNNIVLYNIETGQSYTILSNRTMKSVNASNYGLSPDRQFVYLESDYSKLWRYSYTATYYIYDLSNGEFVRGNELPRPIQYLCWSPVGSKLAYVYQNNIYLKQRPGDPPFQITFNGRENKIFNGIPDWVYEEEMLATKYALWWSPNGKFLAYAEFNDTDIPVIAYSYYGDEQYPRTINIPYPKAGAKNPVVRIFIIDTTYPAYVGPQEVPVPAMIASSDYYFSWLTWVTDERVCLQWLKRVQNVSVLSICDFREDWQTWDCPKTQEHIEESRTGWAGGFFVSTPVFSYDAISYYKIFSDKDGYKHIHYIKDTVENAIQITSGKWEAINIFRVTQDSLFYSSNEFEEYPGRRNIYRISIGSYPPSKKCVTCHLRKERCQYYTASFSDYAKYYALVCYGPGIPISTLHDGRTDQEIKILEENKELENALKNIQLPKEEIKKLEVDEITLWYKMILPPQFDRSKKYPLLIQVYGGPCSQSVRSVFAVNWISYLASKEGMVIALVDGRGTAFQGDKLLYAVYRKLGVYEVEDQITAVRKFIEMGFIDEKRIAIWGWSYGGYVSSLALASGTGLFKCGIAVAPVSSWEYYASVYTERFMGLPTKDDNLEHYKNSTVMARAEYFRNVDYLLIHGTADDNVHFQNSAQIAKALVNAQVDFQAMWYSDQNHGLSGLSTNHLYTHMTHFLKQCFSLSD

IC50 [1, 2] [nM]	IC50 (Recombinant human FAP; [3]) [nM]	IC50 [1, 4] [nM]	IC50 (Recombinant human FAP; [5]) [nM]	Compound
< 100	< 100	–	–	CCCC[C@H](NC(=O)CCC(=O)NCCCOCCOCCOCCCNC(=O)CN1CCN(CC(=O)O)CCN(CC(=O)O)CCN(CC(=O)O)CC1)C(=O)N[C@H]1CSC2=C(SC[C@@H](C(=O)O)NC(=O)[C@H](Cc3ccccc3)CC(=O)[C@H](CCC(N)=O)NC(=O)[C@H]([C@@H](C)O)NC(=O)[C@@H]3CCCN3C(=O)[C@@H]3CCCN3C1=O)C(=O)NC2=O [Compound 2008, DOTA-Ttds-Nle-[Cys(mli)-Pro-Pro-Thr-Gln-Phe-Cys]-OH]
< 100	< 100	–	–	CCCC[C@H](NC(=O)CCC(=O)NCCCOCCOCCOCCCNC(=O)CN1CCN(CC(=O)O)CCN(CC(=O)O)CCN(CC(=O)O)CC1)C(=O)N[C@H]1CSC2=C(SC[C@@H](C(=O)NCCC(=O)O)NC(=O)[C@H](Cc3ccccc3)CC(=O)[C@H](CCC(N)=O)NC(=O)[C@H]([C@@H](C)O)NC(=O)[C@@H]3CCCN3C(=O)[C@@H]3CCCN3C1=O)C(=O)NC2=O [Compound 2009, DOTA-Ttds-Nle-[Cys(mli)-Pro-Pro-Thr-Gln-Phe-Cys]-Bal-OH]
< 100	< 100	–	–	CCCCCC(=O)N[C@H]1CSC2=C(SC[C@@H](C(=O)N[C@@H](CCCCNC(=O)CN3CCN(CC(=O)O)CCN(CC(=O)O)CCN(CC(=O)O)CC3)CC(=O)O)NC(=O)[C@H](Cc3ccccc3)NC(=O)[C@H](CCC(N)=O)NC(=O)[C@H]([C@@H](C)O)NC(=O)[C@@H]3CCCN3C(=O)[C@@H]3CCCN3C1=O)C(=O)NC2=O [Compound 2010, Hex-[Cys(mli)-Pro-Pro-Thr-Gln-Phe-Cys]-Bhk(DOTA)-OH]
< 100	< 100	–	–	CCCCCC(=O)N[C@H]1CSC2=C(SC[C@@H](C(=O)N[C@@H](CC(=O)O)C(=O)N[C@@H](CCCCNC(=O)CN3CCN(CC(=O)O)CCN(CC(=O)O)CCN(CC(=O)O)CC3)C(N)=O)NC(=O)[C@H](Cc3ccccc3)NC(=O)[C@H](CCC(N)=O)NC(=O)[C@H]([C@@H](C)O)NC(=O)[C@@H]3CCCN3C(=O)C3CCCN3C1=O)C(=O)NC2=O (stereo partly drawn) [Compound 2012, Hex-[Cys(mli)-Pro-Pro-Thr-Gln-Phe-Cys]-Asp-Lys(DOTA)-NH2] (Hexanoyl-C[ξP]PTQFCDK(DOTA)-NH2; linker 1-7 via Maleimide(3,4-diyl))
< 100	< 100	–	–	CCCCNC(=O)N[C@H]1CSC2=C(SC[C@@H](C(=O)N[C@@H](CC(=O)O)C(=O)N[C@@H](CCCCNC(=O)CN3CCN(CC(=O)O)CCN(CC(=O)O)CCN(CC(=O)O)CC3)C(N)=O)NC(=O)[C@H](Cc3ccccc3)NC(=O)[C@H](CCC(N)=O)NC(=O)C([C@@H](C)O)NC(=O)[C@@H]3CCCN3C(=O)[C@@H]3CCCN3C1=O)C(=O)NC2=O (stereo partly drawn) [Compound 2014, Buur-[Cys(mli)-Pro-Pro-Thr-Gln-Phe-Cys]-Asp-Lys(DOTA)-NH2] ({NHBu-CO}-CPP[ξThr(3R)]QFCDK(DOTA)-NH2; linker 1-7 via Maleimide(3,4-diyl))
< 100	< 100	–	–	CCCCNC(=O)N[C@H]1CSC2=C(SC[C@@H](C(=O)N[C@@H](CC(=O)O)C(=O)N[C@@H](CCCCNC(=O)CN3CCN(CC(=O)O)CCN(CC(=O)O)CCN(CC(=O)O)CC3)C(N)=O)NC(=O)[C@H](Cc3ccccc3)NC(=O)[C@H](CCC(N)=O)NC(=O)C([C@@H](C)O)NC(=O)[C@@H]3CCCN3C(=O)[C@@H]3CCCN3C1=O)C(=O)N(C)C2=O (stereo partly drawn) [Compound 2015, Hex-[Cys(mli(Me))-Pro-Pro-Thr-Gln-Phe-Cys]-Asp-Lys(DOTA)-NH2] ({NHBu-CO}-CPP[ξThr(3R)]QFCDK(DOTA)-NH2; linker 1-7 via X7)
< 100	< 100	–	–	CCCC[C@H](NC(=O)CCC(=O)NCCCOCCOCCOCCCNC(=O)CN1CCN(CC(=O)O)CCN(CC(=O)O)CCN(CC(=O)O)CC1)C(=O)N[C@H]1CSC2=C(SC[C@@H](C(=O)N[C@@H](CC(=O)O)C(N)=O)NC(=O)[C@H](Cc3ccccc3)NC(=O)[C@H](CCC(N)=O)NC(=O)[C@H]([C@@H](C)O)NC(=O)[C@@H]3CCCN3C(=O)[C@@H]3CCCN3C1=O)C(=O)N(C)C2=O [Compound 2016, DOTA-Ttds-Nle-[Cys(mli(Me))-Pro-Pro-Thr-Gln-Phe-Cys]-Asp-NH2] ({X4-Suc}-[Nle]CPPTQFCD-NH2; linker 2-8 via X7)

The next lines start with the compound.

Compound	IC50 [1, 2] [nM]	IC50 (Recombinant human FAP; [3]) [nM]	IC50 [1, 4] [nM]	IC50 (Recombinant human FAP; [5]) [nM]
CCCC[C@H](NC(=O)CCC(=O)NCCCOCCOCCOCCCNC(=O)C(CNCCN)CNCCN)C(=O)N[C@H]1CSSC[C@@H](C(=O)NCCC(=O)O)NC(=O)[C@H](Cc2ccccc2)NC(=O)[C@H](CCC(N)=O)NC(=O)[C@H]([C@@H](C)O)NC(=O)[C@@H]2CCCC2C(=O)[C@@H]2CCCN2C1=O (stereo partly drawn) [Compound 1019, N4Ac-Ttds-Nle-[Cys-Pro-Pro-Thr-Gln-Phe-Cys]-Bal-OH] ({X8-Suc}-[Nle]C[X9]TQFC[βAla]-OH; disulfide 2-7)	< 100	< 100	–	–
CCCCCC(=O)N[C@H]1CSSC[C@@H](C(=O)N[C@@H](CC(=O)O)C(=O)N[C@@H](CCCCNC(=O)CC[C@H](C(=O)O)N2CCN(CC(=O)O)CCN(CC(=O)O)CC2)C(N)=O)NC(=O)[C@H](Cc2ccccc2)NC(=O)[C@H](CCC(=O)O)NC(=O)[C@H]([C@@H](C)O)NC(=O)[C@@H]2CCCN2C(=O)[C@@H]2CCCN2C1=O [Compound 1020, Hex-[Cys-Pro-Pro-Thr-Glu-Phe-Cys]-Asp-Lys(NODAGA)-NH2] (Hexanoyl-CPPTEFCDK(X11)-NH2; disulfide 1-7)	< 100	< 100	–	–
CCCCCC(=O)N[C@H]1CSSC[C@@H](C(=O)N[C@@H](CC(=O)O)C(=O)N[C@@H](CCCCNC(=O)C(CNCCN)CNCCN)C(N)=O)NC(=O)[C@H](Cc2ccccc2)NC(=O)[C@H](CCC(=O)O)NC(=O)[C@H]([C@@H](C)O)NC(=O)[C@@H]2CCCN2C(=O)[C@@H]2CCCN2C1=O [Compound 1021, Hex-[Cys-Pro-Pro-Thr-Glu-Phe-Cys]-Asp-Lys(N4Ac)—NH2] (Hexanoyl-CPPTEFCDK(X3)-NH2; disulfide 1-7)	< 100	< 100	–	–
CCCCCC(=O)N[C@H]1CSC2=C(SC[C@@H](C(=O)N[C@@H](CC(=O)O)C(N)=O)NC(=O)[C@H](Cc3ccccc3)NC(=O)[C@H](CCC(N)=O)NC(=O)[C@H]([C@@H](C)O)NC(=O)[C@@H]3CCCN3C(=O)[C@@H]3CCCN3C1=O)C(=O)NC2=O [Compound 2001, Hex-[Cys(mli)-Pro-Pro-Thr-Gln-Phe-Cys]-Asp-NH2] (HELM PEPTIDE1{[CCCCCC(=O)[*:2]].C.P.P.T.Q.F.C.D.[am]}|CHEM1{[O=C1NC(=O)C([*:2])=C1[*:1]]}$PEPTIDE1,CHEM1,2:R3-1:R1|PEPTIDE1,CHEM1,8:R3-1:R2$$$V2.0)	< 100	< 100	–	–
CCCCCC(=O)N[C@H]1CCSSCC[C@@H](C(=O)N[C@@H](CC(=O)O)C(N)=O)NC(=O)[C@H](Cc2ccccc2)NC(=O)[C@H](CCC(N)=O)NC(=O)[C@H]([C@@H](C)O)NC(=O)[C@@H]2CCCN2C(=O)[C@@H]2CCCN2C1=O [Compound 2002, Hex-[Hcy-Pro-Pro-Thr-Gln-Phe-Hcy]-Asp-NH2] (Hexanoyl-[hCys]PPTQF[hCys]D-NH2; disulfide 1-7)	< 100	< 100	–	–
CCCC[C@H](NC(=O)CN1CCN(CC(=O)O)CCN(CC(=O)O)CCN(CC(=O)O)CC1)C(=O)N[C@H]1CSC2=C(SC[C@@H](C(=O)N[C@@H](CC(=O)O)C(N)=O)NC(=O)[C@H](Cc3ccccc3)CC(=O)[C@H](CCC(N)=O)NC(=O)[C@H]([C@@H](C)O)NC(=O)[C@@H]3CCCN3C(=O)[C@@H]3CCCN3C1=O)C(=O)NC2=O [Compound 2003, DOTA-Nle-[Cys(mli)-Pro-Pro-Thr-Gln-Phe-Cys]-Asp-NH2] ({DOTA}-[Nle]CPPT[X1]CD-NH2; linker 2-7 via Maleimide(3,4-diyl))	< 100	< 100	–	–
CCCC[C@H](NC(=O)COCCOCCNC(=O)CN1CCN(CC(=O)O)CCN(CC(=O)O)CCN(CC(=O)O)CC1)C(=O)N[C@H]1CSC2=C(SC[C@@H](C(=O)N[C@@H](CC(=O)O)C(N)=O)NC(=O)[C@H](Cc3ccccc3)CC(=O)[C@H](CCC(N)=O)NC(=O)[C@H]([C@@H](C)O)NC(=O)[C@@H]3CCCN3C(=O)[C@@H]3CCCN3C1=O)C(=O)NC2=O [Compound 2004, DOTA-O2Oc-Nle-[Cys(mli)-Pro-Pro-Thr-Gln-Phe-Cys]-Asp-NH2] ({DOTA-AEEA}-[Nle]CPPT[X1]CD-NH2; linker 2-7 via Maleimide(3,4-diyl))	< 100	< 100	< 100	< 100
CCCC[C@H](NC(=O)CCC(=O)NCCCOCCOCCOCCCNC(=O)CN1CCN(CC(=O)O)CCN(CC(=O)O)CCN(CC(=O)O)CC1)C(=O)N[C@H]1CSC2=C(SC[C@@H](C(=O)N[C@@H](CC(=O)O)C(N)=O)NC(=O)[C@H](Cc3ccccc3)CC(=O)[C@H](CCC(N)=O)NC(=O)[C@H]([C@@H](C)O)NC(=O)[C@@H]3CCCN3C(=O)[C@@H]3CCCN3C1=O)C(=O)NC2=O [Compound 2005, DOTA-Ttds-Nle-[Cys(mli)-Pro-Pro-Thr-Gln-Phe-Cys]-Asp-NH2]	< 100	< 100	< 100	< 100
CCCC[C@H](NC(=O)CCC(=O)NCCCOCCOCCOCCCNC(=O)CN1CCN(CC(=O)O)CCN(CC(=O)O)CCN(CC(=O)O)CC1)C(=O)N[C@H]1CSC2=C(SC[C@@H](C(=O)N[C@@H](CC(=O)O)C(=O)NCc3ccc(C(=O)N[C@@H](CCCNC(=N)N)C(N)=O)cc3)NC(=O)[C@H](Cc3ccccc3)CC(=O)[C@H](CCC(N)=O)NC(=O)[C@H]([C@@H](C)O)NC(=O)[C@@H]3CCCN3C(=O)[C@@H]3CCCN3C1=O)C(=O)NC2=O [Compound 2006, DOTA-Ttds-Nle-[Cys(mli)-Pro-Pro-Thr-Gln-Phe-Cys]-Asp-Pamb-Arg-NH2] ({X4-Suc}-[Nle]CPPT[X1]CD[4Amb]R-NH2; linker 2-7 via Maleimide(3,4-diyl))	< 100	< 100	–	–
